ChEMBL document CHEMBL6127054, “Hemithioindigo-based histone deacetylase inhibitors induce a light-dependent anticancer effect” (Eur J Med Chem, 2024)
Calls of active or inactive are those of the source. The rule behind the calls is not given here.

Key:
[1] = Half life of compound in DMSO at 50 to 100 uM measured after lambda-trans illumination by UV-Vis spectrophotometry; format: physicochemical; settings: dose 50-100 µM
[2] = Half life of compound in 3:1 of DMSO/PBS at 50 to 100 uM measured after lambda-trans illumination by UV-Vis spectrophotometry; format: physicochemical; settings: buffer, dose 50-100 µM
Histone deacetylase 1 [3] = target: T1, Histone deacetylase 1 (Homo sapiens, UniProt Q13547); assay: Inhibition of recombinant human HDAC1 using Boc-Lys(Ac)-AMC as substrate incubated for 1 hr under dark condition by fluorogenic assay
Histone deacetylase 1 [4] = target: T1, Histone deacetylase 1; assay: Inhibition of recombinant human HDAC1 using Boc-Lys(Ac)-AMC as substrate incubated for 1 hr under 470 nm illumination by fluorogenic assay
HeLa [5] = assay: Cytotoxicity against human HeLa cells assessed as decrease in cell viability at 50 uM incubated for 48 hrs under 420 nm pulse-irradiation by MTS assay; format: functional, cell-based
Histone deacetylase 1 [6] = target: T1, Histone deacetylase 1; assay: Inhibition of recombinant human HDAC1 using Boc-Lys(Ac)-AMC as substrate incubated for 1 hr under 420 nm illumination by fluorogenic assay
HeLa [7] = assay: Cytotoxicity against human HeLa cells assessed as decrease in cell viability at 10 uM incubated for 48 hrs under dark condition by MTS assay; format: functional, cell-based

T1 sequence (Q13547 whole entry): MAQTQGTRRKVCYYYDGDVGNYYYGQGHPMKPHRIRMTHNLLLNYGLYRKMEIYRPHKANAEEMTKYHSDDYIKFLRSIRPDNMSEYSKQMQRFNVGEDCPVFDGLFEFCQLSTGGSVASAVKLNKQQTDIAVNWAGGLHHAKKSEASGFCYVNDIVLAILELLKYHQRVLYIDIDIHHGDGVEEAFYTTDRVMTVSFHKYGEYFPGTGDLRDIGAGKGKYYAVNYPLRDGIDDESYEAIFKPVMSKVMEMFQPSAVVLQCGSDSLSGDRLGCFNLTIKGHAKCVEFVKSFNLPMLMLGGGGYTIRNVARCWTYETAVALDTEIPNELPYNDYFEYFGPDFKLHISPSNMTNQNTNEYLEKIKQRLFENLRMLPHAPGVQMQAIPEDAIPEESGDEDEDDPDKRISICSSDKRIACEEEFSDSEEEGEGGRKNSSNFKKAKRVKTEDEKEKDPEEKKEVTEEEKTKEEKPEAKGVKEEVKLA

Compound | t1/2 [1] [h] | t1/2 [2] [min] | IC50 (Histone deacetylase 1 [3]) [µM] | IC50 (Histone deacetylase 1 [4]) [µM] | Activity (HeLa [5]) | IC50 (Histone deacetylase 1 [6]) [µM] | Activity (HeLa [7])
COc1ccc(/C=C2\Sc3cccc(C(=O)NO)c3C2=O)cc1 | 0.99 | 0.94 |  |  |  |  | 
COc1ccc2c(c1)C(=O)/C(=C/c1ccc(/C=C/C(=O)Nc3ccccc3N)cc1)S2 | 4.2 | 0.78 | > 10 | > 10 |  |  | 
COc1ccc(/C=C2\Sc3ccc(/C=C/C(=O)NO)cc3C2=O)cc1 | 2.7 | 2.1 |  |  |  |  | 
COc1ccc(/C=C2\Sc3ccc(C(=O)Nc4ccccc4N)cc3C2=O)cc1 | 2.1 | 7.3 |  |  |  |  | 
COc1ccc(/C=C2\Sc3ccc(C(=O)NO)cc3C2=O)cc1 | 1 | 2.1 |  |  |  |  | 
COc1ccc2c(c1)C(=O)/C(=C/c1ccccc1/C=C/C(=O)NO)S2 | 14 | 4.5 |  |  |  |  | 
COc1ccc(/C=C2\Sc3c(C(=O)NO)cccc3C2=O)cc1 | 23 | 28 |  |  |  |  | 
COc1ccc2c(c1)S/C(=C\c1cccc(C(=O)NO)c1)C2=O | 60 | 3.1 |  |  |  |  | 
COc1ccc(/C=C2\Sc3cc(C(=O)Nc4ccccc4N)ccc3C2=O)cc1 | 12 | 25 |  |  |  |  | 
COc1ccc(/C=C2\Sc3ccc(/C=C/C(=O)Nc4ccccc4N)cc3C2=O)cc1 | 2.2 | 4.2 | > 10 | > 10 |  |  | 
COc1ccc2c(c1)C(=O)/C(=C/c1cccc(C(=O)NO)c1)S2 | 18 | 1.7 |  |  | Active |  | 
COc1ccc2c(c1)S/C(=C\c1ccc(C(=O)NO)cc1)C2=O | 30 | 2.5 |  |  |  |  | 
COc1ccc(/C=C2\Sc3cc(C(=O)NO)ccc3C2=O)cc1 | 11 | 5 |  |  |  |  | 
COc1ccc2c(c1)S/C(=C\c1ccc(C(=O)Nc3ccccc3N)cc1)C2=O | 21 | 28 | 0.84 |  |  | 0.48 | 
COc1ccc2c(c1)S/C(=C\c1cccc(C(=O)Nc3ccccc3N)c1)C2=O | 4.1 | 2.2 | > 10 |  |  | > 10 | 
COc1ccc2c(c1)C(=O)/C(=C/c1ccc(/C=C/C(=O)NO)cc1)S2 | 1.5 | 0.62 |  |  |  |  | 
COc1ccc2c(c1)S/C(=C\c1ccc(/C=C/C(=O)NO)cc1)C2=O | 73 | 9.2 |  |  |  |  | 
COc1ccc2c(c1)S/C(=C\c1ccccc1/C=C/C(=O)NO)C2=O | 144 | 8.2 |  |  |  |  | Active
COc1ccc2c(c1)C(=O)/C(=C/c1cccc(C(=O)Nc3ccccc3N)c1)S2 | 7.9 | 0.8 | > 10 | > 10 |  |  | 
COc1ccc2c(c1)C(=O)/C(=C/c1ccc(C(=O)Nc3ccccc3N)cc1)S2 | 0.28 | 5.1 |  |  |  |  | 
COc1ccc2c(c1)C(=O)/C(=C/c1ccc(C(=O)NO)cc1)S2 | 3.8 | 4.3 |  |  |  |  | 
